# According to patent US9346786B2, “Pyrrolidine compounds” (Hoffmann-La Roche Inc., priority 2009, dated 2016):
# Biological target: recombinant human NK3 receptor (Homo sapiens (Human), UniProt P29371)
# Assay: biochemical
# Format: binding
# Settings: not given
# recombinant human NK3 receptor, sequence (P29371 whole entry): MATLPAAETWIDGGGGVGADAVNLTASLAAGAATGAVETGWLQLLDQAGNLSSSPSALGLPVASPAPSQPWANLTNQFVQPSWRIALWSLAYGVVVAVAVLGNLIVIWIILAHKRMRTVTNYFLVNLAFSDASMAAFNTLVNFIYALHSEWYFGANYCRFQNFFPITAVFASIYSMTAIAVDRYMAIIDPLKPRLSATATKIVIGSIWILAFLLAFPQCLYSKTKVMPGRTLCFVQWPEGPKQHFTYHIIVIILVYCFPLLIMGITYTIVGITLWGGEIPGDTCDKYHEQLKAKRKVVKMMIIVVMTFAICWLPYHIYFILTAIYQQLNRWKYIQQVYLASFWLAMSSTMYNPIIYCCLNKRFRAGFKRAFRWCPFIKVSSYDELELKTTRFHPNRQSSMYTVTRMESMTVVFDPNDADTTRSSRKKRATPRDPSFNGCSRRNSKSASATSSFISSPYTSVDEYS
row,SMILES,Ki [nM]
1,"CCN(C(=O)Oc1ccc(F)cc1)[C@@H]1CN(C(=O)C2CCN(c3ccc(C(N)=O)cn3)CC2)C[C@H]1c1ccc(Cl)c(F)c1 [Example 109, [(3S,4R)-1-(5′-Carbamoyl-3,4,5,6-tetrahydro-2H-[1,2′]bipyridinyl-4-carbonyl)-4-(4-chloro-3-fluoro-phenyl)-pyrrolidin-3-yl]-ethyl-carbamic acid 4-fluoro-phenyl ester]",1.7

# Same assay, conditions: [3H]SR142801, membranes of HEK293 cells transiently expressing recombinant human NK3 receptor; read-out: Data Ki (hNK-3 receptor affinity)
row,SMILES,Ki [nM]
1,"CCN(C(=O)Oc1ccc(F)cc1)[C@@H]1CN(C(=O)C2CCN(c3ccc(S(C)(=O)=O)cn3)CC2)C[C@H]1c1ccc(Cl)cc1 [Example 16, [(3S,4R)-4-(4-Chloro-phenyl)-1-(5′-methanesulfonyl-3,4,5,6-tetrahydro-2H-[1,2′]bipyridinyl-4-carbonyl)-pyrrolidin-3-yl]-ethyl-carbamic acid 4-fluoro-phenyl ester]",2
2,"CCN(C(=O)Oc1ccc(F)cc1)[C@@H]1CN(C(=O)C2CCN(c3ccc(C(N)=O)cn3)CC2)C[C@H]1c1ccc(Cl)cc1 [Example 111, [(3S,4R)-1-(5′-Carbamoyl-3,4,5,6-tetrahydro-2H-[1,2′]bipyridinyl-4-carbonyl)-4-(4-chloro-phenyl)-pyrrolidin-3-yl]-ethyl-carbamic acid 4-fluoro-phenyl ester]",7.4
3,"CCN(C(=O)Oc1ccc(F)cc1)[C@@H]1CN(C(=O)C2CCN(c3ccc(C#N)cn3)CC2)C[C@H]1c1ccc(F)cc1 [Example 35, [(3S,4R)-1-(5′-Cyano-3,4,5,6-tetrahydro-2H-[1,2′]bipyridinyl-4-carbonyl)-4-(4-fluoro-phenyl)-pyrrolidin-3-yl]-ethyl-carbamic acid 4-fluoro-phenyl ester]",4
4,"CCN(C(=O)Oc1ccc(F)cc1)[C@@H]1CN(C(=O)C2CCN(C(=O)C3CC(F)(F)C3)CC2)C[C@H]1c1ccc(Cl)cc1 [Example 90, {(3S,4R)-4-(4-Chloro-phenyl)-1-[1-(3,3-difluoro-cyclobutanecarbonyl)-piperidine-4-carbonyl]-pyrrolidin-3-yl}-ethyl-carbamic acid 4-fluoro-phenyl ester]",2.4
5,"CCN(C(=O)Oc1ccc(F)cc1)[C@@H]1CN(C(=O)C2CCN(c3ccc(S(C)(=O)=O)cn3)CC2)C[C@H]1c1ccc(Cl)c(F)c1 [Example 63, [(3S,4R)-4-(4-Chloro-3-fluoro-phenyl)-1-(5′-methanesulfonyl-3,4,5,6-tetrahydro-2H-[1,2′]bipyridinyl-4-carbonyl)-pyrrolidin-3-yl]-ethyl-carbamic acid 4-fluoro-phenyl ester]",0.7
6,"CCN(C(=O)Oc1ccc(F)cc1)[C@@H]1CN(C(=O)C2CCN(C(=O)C3CCC3)CC2)C[C@H]1c1ccc(Cl)c(F)c1 [Example 67, [(3S,4R)-4-(4-Chloro-3-fluoro-phenyl)-1-(1-cyclobutanecarbonyl-piperidine-4-carbonyl)-pyrrolidin-3-yl]-ethyl-carbamic acid 4-fluoro-phenyl ester]",2
7,"CCN(C(=O)Oc1ccc(F)cc1)[C@@H]1CN(C(=O)C2CCN(c3ccc(F)cn3)CC2)C[C@H]1c1ccc(F)c(F)c1 [Example 54, [(3S,4R)-4-(3,4-Difluoro-phenyl)-1-(5′-fluoro-3,4,5,6-tetrahydro-2H-[1,2′]bipyridinyl-4-carbonyl)-pyrrolidin-3-yl]-ethyl-carbamic acid 4-fluoro-phenyl ester]",7
8,"CCN(C(=O)Oc1ccc(F)cc1)[C@@H]1CN(C(=O)C2CCN(c3ccc(F)cn3)CC2)C[C@H]1c1ccc(F)c(Cl)c1 [Example 117, [(3S,4R)-4-(3-Chloro-4-fluoro-phenyl)-1-(5′-fluoro-3,4,5,6-tetrahydro-2H-[1,2′]bipyridinyl-4-carbonyl)-pyrrolidin-3-yl]-ethyl-carbamic acid 4-fluoro-phenyl ester]",3.3
9,"CC(C)N(C(=O)Oc1ccc(F)cc1)[C@H]1CN(C(=O)C2CCN(c3ccc(C#N)cn3)CC2)C[C@@H]1c1ccc(Cl)cc1 [Example 28, [(3R,4S)-4-(4-Chloro-phenyl)-1-(5′-cyano-3,4,5,6-tetrahydro-2H-[1,2′]bipyridinyl-4-carbonyl)-pyrrolidin-3-yl]-isopropyl-carbamic acid 4-fluoro-phenyl ester]",50
10,"CCN(C(=O)Oc1ccc(F)cc1)[C@@H]1CN(C(=O)C2CCN(c3ccc(C(C)=O)cn3)CC2)C[C@H]1c1ccc(Cl)c(Cl)c1 [Example 116, [(3S,4R)-1-(5′-Acetyl-3,4,5,6-tetrahydro-2H-[1,2′]bipyridinyl-4-carbonyl)-4-(3,4-dichloro-phenyl)-pyrrolidin-3-yl]-ethyl-carbamic acid 4-fluoro-phenyl ester]",0.5
11,"N#Cc1ccc(N2CCC(C(=O)N3C[C@@H](N(C(=O)Oc4ccc(F)cc4)C4CC4)[C@H](c4ccc(Cl)cc4)C3)CC2)nc1 [Example 29, [(3S,4R)-4-(4-Chloro-phenyl)-1-(5′-cyano-3,4,5,6-tetrahydro-2H-[1,2′]bipyridinyl-4-carbonyl)-pyrrolidin-3-yl]-cyclopropyl-carbamic acid 4-fluoro-phenyl ester]",12
12,"CCN(C(=O)Oc1ccc(F)cc1)[C@@H]1CN(C(=O)C2CCN(C(C)=O)CC2)C[C@H]1c1ccc(Cl)c(F)c1 [Example 80, [(3S,4R)-1-(1-Acetyl-piperidine-4-carbonyl)-4-(4-chloro-3-fluoro-phenyl)-pyrrolidin-3-yl]-ethyl-carbamic acid 4-fluoro-phenyl ester]",2
13,"CCN(C(=O)Oc1ccc(F)cc1)[C@@H]1CN(C(=O)C2CCN(C(=O)C3CC(F)(F)C3)CC2)C[C@H]1c1ccc(Cl)c(F)c1 [Example 66, {(3S,4R)-4-(4-Chloro-3-fluoro-phenyl)-1-[1-(3,3-difluoro-cyclobutanecarbonyl)-piperidine-4-carbonyl]-pyrrolidin-3-yl}-ethyl-carbamic acid 4-fluoro-phenyl ester]",1
14,"CCN(C(=O)Oc1ccc(F)cc1)[C@@H]1CN(C(=O)C2CCN(c3ccc(Cl)cn3)CC2)C[C@H]1c1ccc(Cl)cc1 [Example 110, [(3S,4R)-4-(4-Chloro-phenyl)-1-(5′-chloro-3,4,5,6-tetrahydro-2H-[1,2′]bipyridinyl-4-carbonyl)-pyrrolidin-3-yl]-ethyl-carbamic acid 4-fluoro-phenyl ester]",4.8

# Same assay, conditions: read-out: Data Ki (hNK-3 receptor affinity)
row,SMILES,Ki [nM]
1,"CCN(C(=O)Oc1ccc(F)cc1)[C@@H]1CN(C(=O)C2CCN(c3ccc(C(F)(F)F)cn3)CC2)C[C@H]1c1ccc(F)c(Cl)c1 [Example 119, [(3S,4R)-4-(3-Chloro-4-fluoro-phenyl)-1-(5′-trifluoromethyl-3,4,5,6-tetrahydro-2H-[1,2′]bipyridinyl-4-carbonyl)-pyrrolidin-3-yl]-ethyl-carbamic acid 4-fluoro-phenyl ester]",3.7
2,"CCN(C(=O)Oc1ccc(F)cc1)[C@H]1CN(C(=O)C2CCN(c3ccc(C(F)(F)F)cn3)CC2)C[C@@H]1c1ccc(Cl)cc1 [Example 19, [(3R,4S)-4-(4-Chloro-phenyl)-1-(5′-trifluoromethyl-3,4,5,6-tetrahydro-2H-[1,2′]bipyridinyl-4-carbonyl)-pyrrolidin-3-yl]-ethyl-carbamic acid 4-fluoro-phenyl ester]",88
3,"CCN(C(=O)Oc1ccc(F)cc1)[C@@H]1CN(C(=O)C2CCN(c3ccc(C)cn3)CC2)C[C@H]1c1ccc(F)c(F)c1 [Example 55, [(3S,4R)-4-(3,4-Difluoro-phenyl)-1-(5′-methyl-3,4,5,6-tetrahydro-2H-[1,2′]bipyridinyl-4-carbonyl)-pyrrolidin-3-yl]-ethyl-carbamic acid 4-fluoro-phenyl ester]",9
